Changes are numbered by the printed parent chain. Entries after “also recorded” stand apart in the source; their conditions may differ. Where a SMILES comes first, the peptide text is derived from it. The star is where a group is joined. FITC = O=C1OC2(c3ccc(O)cc3Oc3cc(O)ccc32)c2ccc(NC(=S)*)cc21; βAla = NCCC(=O)O

Here are results for 4 compounds from US10030260B2, “Inducible reconstitution and real-time quantitative kinetic system for the study of intramembrane enzymes” (THE JOHNS HOPKINS UNIVERSITY, priority 2012, dated 2018).

The target in one test is T1, E. coli GlpG (Escherichia coli, UniProt P09391).
T1 construct: GST (cleaved yes); made in house; host or cells: E. coli C43 (DE3)
In words: Inducible reconstitution and real-time proteolysis assay in proteoliposomes. It is filed as biochemical. On the procedure: (§1) 30 μg of E. coli liposomes were mixed with 50 mM NaAcetate pH 4.0, 150 mM NaCl, 0.05 to 500 pmoles of rhomboid enzyme, and 20 to 1600 pmoles of FITC-substrate. This co-reconstitution mix was diluted 20-fold with 12.5 mM NaAcetate pH 4.0, 37.5 mM NaCl to reduce detergent below its critical micelle concentration and promote reconstitution. Proteoliposomes were collected by ultracentrifugation at 600,000 g for 20 minutes in an Optima MAX-XP ultracentrifuge (Beckman). […] Fluorescence was monitored every minute using monochromators set to wavelengths of 485±20 nm (excitation) and 528±20 nm (emission). Alternatively, time points were quenched with equal volumes of 2× Tricine SDS-sample buffer, resolved on 16% Tricine gels (Life Technologies), and imaged with a blue laser and fluorescein emission filters on a Typhoon Imager (GE Healthcare). APP+Spi7-Flag and HA-EcGlpG were co-reconstituted as above, resolved by SDS-PAGE, detected by 2-color anti-Flag and anti-HA western analysis, and imaged with an Odyssey infrared scanner (LiCor Biosciences).
All data were analyzed and graphed using the R language and environment. Initial rates were extracted from real-time curves between 4 and 14 minutes using the slope (m) in a linear model: y=mx+b. Initial rates versus substrate concentration of reconstituted reactions were modeled using the Hill-modified Michaelis Menten equation: v0=(Vmax*[S0]^h)/(Km^h+[S0]^h). […]
To establish controlled conditions for a Michaelis-Menten kinetic system, we lowered GlpG levels to 4 pmoles while varying substrate from 20 to 1600 pmoles and co-reconstituted both into 200 nm proteoliposomes comprised of E. coli lipids to preserve its physiological environment as much as possible (FIG. 9A). […] Finally, FITC-TatA reconstituted in both orientations in approximately equal proportions, as quantified by reacting single engineered cysteines with membrane-impermeable dyes (FIG. 3A). […]

The target in test [1] is T2, catalytically inactive TMR-GlpG (C104A+W196TMR+H254A) (Escherichia coli, UniProt P09391, C104A/H254A/W196C).
T2 construct: His (N); TMR (tetramethylrhodamine-5-maleimide) dye on the side chain of Cys196; made in house
T2 sequence (P09391 1-276 C104A/W196C/H254A): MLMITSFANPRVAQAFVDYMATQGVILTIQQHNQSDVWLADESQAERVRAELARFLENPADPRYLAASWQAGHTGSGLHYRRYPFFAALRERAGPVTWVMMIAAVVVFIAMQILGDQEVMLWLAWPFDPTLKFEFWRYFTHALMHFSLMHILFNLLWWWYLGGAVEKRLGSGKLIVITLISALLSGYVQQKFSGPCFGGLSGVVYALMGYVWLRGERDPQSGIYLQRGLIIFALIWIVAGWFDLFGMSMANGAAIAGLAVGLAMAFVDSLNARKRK
In words: FRET analysis of protease-substrate affinity in membranes. It is filed as binding. The following applies: in proteoliposomes. How it is done:
Purified N-terminally His-tagged EcGlpG H254A+C104A+W196C protein was labeled at the single cysteine residue with the FRET acceptor tetramethylrhodamine-5-maleimide (TMR) (Life Technologies). Reconstitutions into E. coli liposomes were performed as described above, except that 30 pmoles of TMR-labeled protein was mixed with 25-800 pmoles of the FITC-TatA ligand. Following reconstitution, the samples were incubated at 37° C. in a Synergy H4 Hybrid plate reader. Fluorescence was measured with excitation at 485 nm and emission from 510-600 nm in 5 nm intervals. The FRET interaction was calculated at the 580 nm emission wavelength by subtracting the TMR-labeled GlpG protein alone and the FITC-TatA alone samples from the sample containing both macromolecules.

For a further test, the target named is T3, HA-EcGlpG (Escherichia coli, UniProt P09391).
T3 construct: GST (cleaved yes); made in house; host or cells: E. coli C43 (DE3)
T3 sequence (P09391 1-276): T2 sequence (P09391 1-276 C104A/W196C/H254A) with A104C, C196W, A254H
The experiment in a line: Proteolysis assay in detergent micelles. It is filed as biochemical. The following applies: faster in detergent. On the procedure:
Cleavage reactions of APP+Spi7-Flag were performed as described previously and imaged with an Odyssey infrared scanner (LiCor Biosciences) (Baker and Urban, 2012; Baker et al., 2007). […] Reactions were quenched and analyzed on 16% tricine gels as above. Actual substrate concentrations were calibrated using FITC-TatA standards analyzed in parallel.

Test [2] has as its target T4, inactive EcGlpG mutants (His-EcGlpG C104A+H254A; HA-EcGlpG S201A+H254A) (Escherichia coli, UniProt P09391, C104A/H254A).
T4 construct: made in house
It is filed as binding. Particulars: co-precipitation.
Experimental: (§2) 2.5 μM His-tagged EcGlpG C104A+H254A with 70 μM FITC-TatA was incubated with pre-equilibrated Ni^2+-NTA resin (Qiagen) for 3 hours at room temperature. The resin was washed, and bound proteins were eluted with SDS-sample buffer for 30 minutes. FITC-TatA was detected as above using a 16% Tricine gel and a Typhoon Imager. His-EcGlpG C104A+H254A was detected by western blot with the mouse anti-penta-His antibody (Qiagen), and imaged with an Odyssey infrared scanner (LiCor Biosciences).
(§3) Two Superdex 200 PC 3.2/30 high-resolution gel filtration columns (GE Healthcare) were connected in tandem to a ProStar 410 HPLC system (Agilent/Varian), and equilibrated with 9.5 μM FITC-TatA in 2 mM phosphate buffer pH 7.4, 25 mM Tris pH 7.4, 120 mM NaCl, 0.15% Sarkosyl, 0.1% DDM, 1 mM DTT. 20 μM HA-EcGlpG S201A+H254A was preincubated with 9.5 μM FITC-TatA, and 50 μL was injected using an Autosampler 410 onto the columns at a flow rate of 0.05 mL/minute. Elution was monitored by absorbance at all wavelengths between 200 to 600 nm simultaneously using a PDA 330 detector. The FITC-TatA peak was quantified relative to known FITC-TatA concentration standards that were run on the columns equilibrated with 9.5 μM FITC alone in buffer. Conventional gel filtration was conducted under similar conditions, except the columns were equilibrated with buffer lacking FITC-TatA.

Test [3] addresses inactive EcGlpG mutants (His-EcGlpG C104A+H254A; HA-EcGlpG S201A+H254A). It is filed as binding, Escherichia coli. The following applies: gel filtration and co-precipitation, non-equilibrium; read-out: Kd (low affinity).
Experimental: as §2, §3
Another test concerns the target EcGlpG (Escherichia coli, UniProt P09391). Particulars: 37° C. for 3 hours. How it is done:
Rhomboid protein in 50 mM Tris pH 7.4, 150 mM NaCl, 0.1% DDM was incubated with either 10% DMSO only or carrying […] JLK6 at 37° C. for 3 hours, purified using a C4 ZipTip, and analyzed by mass spectrometry as described previously (Pierrat et al., 2011).

Test [4] deals with three different rhomboid proteases. The experiment in a line: Manual 384-well compound screen in proteoliposomes. Particulars: 1 hour at 37° C., no compound pre-incubation. It is filed as biochemical. How it is done: FIG. 12. Assay Evaluation in Manual Compound Screens. […] B. We assayed 3 different rhomboid proteases independently in hand-pipetted 384-well screens against a custom-assembled library of protease inhibitors, combinatorial compounds, and membrane enzyme inhibitors (all in DMSO). Assays were conducted for 1 hour at 37° C. and fluorescence intensity was read every 2 minutes. Graphed are the 60 minute values, with the last (rightmost) 7 wells being the isocoumarin inhibition controls.
An important consideration is assay suitability for HTS, which we evaluated by manually screening a diverse panel of class-specific protease inhibitors (natural products, sulphonyl fluorides, hydroxamate-based metalloprotease inhibitors, vinyl sulfones, isocoumarins, chloromethyl ketones, proteasomal inhibitors, aspartyl protease inhibitors, cysteine protease inhibitors), a combinatorial library of peptide diphenyl-phosphonates, and over a dozen lipid enzyme inhibitors/drugs (some of which are known to affect other intramembrane proteases). We hand-assembled this library of 111 compounds because it represents likely candidates for real rhomboid inhibitors on the one hand, and on the other poses challenges for assay performance because most are chemically-reactive (warhead) molecules. […]

For the next test, the target named is T5, HA-PsAarA (Providencia stuartii, UniProt P46116).
T5 construct: GST (cleaved yes); made in house; host or cells: E. coli C43 (DE3)
T5 sequence (P46116 whole entry, looked up): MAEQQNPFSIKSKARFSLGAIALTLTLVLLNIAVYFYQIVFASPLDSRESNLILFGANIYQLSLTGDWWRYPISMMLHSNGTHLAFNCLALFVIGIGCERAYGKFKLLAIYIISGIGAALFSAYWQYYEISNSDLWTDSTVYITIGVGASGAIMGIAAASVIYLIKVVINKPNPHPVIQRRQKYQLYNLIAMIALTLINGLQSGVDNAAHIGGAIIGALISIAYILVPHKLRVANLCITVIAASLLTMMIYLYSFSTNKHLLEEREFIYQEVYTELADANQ
In words: Real-time kinetics of substrate variants in proteoliposomes. The following applies: in words. It is filed as biochemical. How it is done:
as §1
All data were analyzed and graphed using the R language and environment. Initial rates were extracted from real-time curves between 4 and 14 minutes using the slope (m) in a linear model: y=mx+b. […]

T1 sequence (P09391 whole entry): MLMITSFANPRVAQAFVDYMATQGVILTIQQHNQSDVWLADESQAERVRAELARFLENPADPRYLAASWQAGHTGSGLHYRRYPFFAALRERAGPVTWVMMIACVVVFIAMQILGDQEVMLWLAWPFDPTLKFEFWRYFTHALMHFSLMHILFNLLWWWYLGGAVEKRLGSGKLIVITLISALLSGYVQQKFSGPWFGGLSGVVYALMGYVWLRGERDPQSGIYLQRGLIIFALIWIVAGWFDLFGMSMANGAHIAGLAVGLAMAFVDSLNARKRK
Sequence of EcGlpG (P09391 whole entry): as above
T4 sequence (P09391 whole entry C104A/H254A): as the sequence (P09391 whole entry) above, with C104A, H254A counted along it

`CC[C@H](C)[C@H](NC(=O)[C@H](CC(C)C)NC(=O)[C@@H](NC(=O)[C@@H](NC(=O)[C@H](CC(C)C)NC(=O)[C@H](CC(C)C)NC(=O)[C@H](C)NC(=O)[C@@H](NC(=O)[C@@H](NC(=O)[C@@H](NC(=O)[C@H](CC(C)C)NC(=O)[C@H](CCC(N)=O)NC(=O)[C@H](Cc1c[nH]c2ccccc12)NC(=O)[C@@H]1CCCN1C(=O)[C@H](CO)NC(=O)CNC(=O)[C@H](Cc1ccccc1)NC(=O)[C@H](C)NC(=O)[C@H](C)NC(=O)[C@@H](NC(=O)[C@H](C)NC(=O)[C@@H](NC(=O)[C@@H](NC(=O)[C@H](CO)NC(=O)[C@H](CCC(=O)O)NC(=O)[C@H](CCSC)NC(=O)CCNC(=S)Nc1ccc2c(c1)C(=O)OC21c2ccc(O)cc2Oc2cc(O)ccc21)[C@@H](C)O)[C@@H](C)CC)[C@@H](C)O)[C@@H](C)CC)[C@@H](C)CC)[C@@H](C)CC)[C@@H](C)CC)[C@@H](C)CC)C(=O)N[C@@H](Cc1ccccc1)C(=O)NCC(=O)N[C@H](C(=O)N[C@@H](CCCCN)C(=O)N[C@@H](CCCCN)C(=O)N[C@@H](CC(C)C)C(=O)N[C@@H](CCCNC(=N)N)C(N)=O)[C@@H](C)O` [FITC-TatA] ({FITC-βAla}-MESTIATAAFGSPWQLIIIALLIILIFGTKKLR-NH2): the KM on E. coli GlpG (proteoliposomes of E. coli lipids, relative to phospholipid) worked out at 0.14±0.02 mole percent. For the same compound, at E. coli GlpG (proteoliposomes, enzyme saturated with substrate), the kcat came to 0.0063 ± 0.00021 s⁻¹. For the same compound, the “apparent Kd” value in test [1] turned out to be 0.08±0.026 mole percent. On HA-EcGlpG, the “kcat in detergent relative to proteoliposomes” value is recorded as about 6.5 fold. Besides, in test [2], the “FITC-TatA eluting with His-EcGlpG” value is reported as under 0.1%. The Kd in test [3] is over 800 µM.
Take `COc1oc(=O)c2cc(N)ccc2c1Cl` [JLK6, reference compound]: the “effect on fluorescence signal and cleavage product of FITC-TatA cleavage” value on E. coli GlpG (proteoliposomes, 37° C., pretreatment with inhibitor) is “blocked generation of the fluorescence signal and cleavage product; also recorded: abrogated signal to background”. For the same compound, the “mass shift of enzyme after incubation with inhibitor” value on EcGlpG is reported as “complete mass shift”.
Consider `O=c1occc2ccccc12` [isocoumarin], for which, in test [4], the inhibition in screen result is “obvious evidence of inhibition of all three rhomboid proteases”.
Regarding “Spitz: Drosophila signaling molecule Spitz residues 135-168 of 186, FITC-labelled substrate”, in the test with HA-PsAarA, the “kcat and KM relative to TatA” value is given as “lower kcat without any significant change in KM”.
